Results reported in patent US10344054B2, “Angiotensin-1-receptor antagonists” (Ferring B.V., priority 2016, dated 2019).
Starred links: 1 amine or outer side, 2 acyl side, 3 side chain; linkers in the order of their positions; H or OH if unused. Non-standard residues stand in square brackets, D forms with d. Residues, ends and D or L forms follow the SMILES beside them. X1 = O=C(CN(C[C@H](O)[C@@H](O)[C@H](O)[C@H](O)CO)[*:1])[*:2]; dPhe(2-Me) = Cc1ccccc1C[C@@H](N)C(=O)O; d1Nal = N[C@H](Cc1cccc2ccccc12)C(=O)O; Chg = N[C@H](C(=O)O)C1CCCCC1

Legend:
hAT1R [1] = target: T1, hAT1R (Homo sapiens, UniProt P30556); assay: FLIPR calcium flux assay, Part I: agonist activity; format: cell-based; settings: ChanTest hAT1R stable cells; % MPE, percent of the maximal possible effect; read-out: hAT1R Agonist Efficacy Agonist (%) Ave
T1 sequence (P30556 1-359): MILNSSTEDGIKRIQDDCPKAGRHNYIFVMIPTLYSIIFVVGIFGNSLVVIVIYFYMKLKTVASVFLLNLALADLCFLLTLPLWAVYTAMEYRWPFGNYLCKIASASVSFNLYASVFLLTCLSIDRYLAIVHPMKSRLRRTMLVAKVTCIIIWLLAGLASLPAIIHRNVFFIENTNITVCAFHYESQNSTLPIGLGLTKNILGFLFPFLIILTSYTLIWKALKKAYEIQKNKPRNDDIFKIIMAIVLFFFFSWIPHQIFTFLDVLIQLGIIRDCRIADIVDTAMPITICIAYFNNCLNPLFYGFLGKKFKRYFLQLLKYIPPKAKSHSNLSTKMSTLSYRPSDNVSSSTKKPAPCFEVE
Experimental: (§1) AT1 receptor (AT1R) agonists increase intracellular flux of calcium ions. AT1R antagonists can reduce the agonist effect. […] Compounds were first tested for agonism (Part I) followed by addition of the AT1R agonist angiotensin II to test for antagonist activity (Part II). This assay used a stable hAT1R expressing cell line (ChanTest hAT1R; ChanTest Corp A628). Intracellular flux of calcium in response to agonist was measured through real-time measurement of fluorescence induced through the interaction of Ca2+ (released from intracellular stores) and calcium-sensitive dye. In Part I, cells were exposed to varying concentrations of test compounds and immediately measured for agonist activity (EC50 and Efficacy).
(§2) ChanTest hAT1R stable cells were maintained in Ham's F12 containing 10% (v/v) heat inactivated fetal bovine serum (FBS-HI), 4 mM Glutamax, 1% NEAA, 50 ng/mL plasmocin, 400 μg/mL G418 at 37° C. under 5% CO2 in a humidified atmosphere.
(§3) For FLIPR assay, ChanTest hAT1R cells were trypsinized with 6 ml of Trypsin EDTA solution and harvested in phenol-red free DMEM containing 10% FBS-HI, 4 mM Glutamax and counted, spun down and resuspended in the same medium. The cell suspension was added to the wells of 384-well black PDL clear bottom plates at 2.5×10^4 cells/well, 20 μl/well.
(§4) Preparation of Loading Buffer:
(§5) • Loading Buffer: 1 vial of Calcium 5 Bulk Assay reagent was dissolved in 100 ml of 1× HBSS-20 mM Hepes buffer. • Probenecid was resuspended at 1 M in 1 M NaOH. Once the probenecid had gone into solution, an equal volume of H2O was added to make a solution of 500 mM followed by a 1:100 dilution in the Loading Buffer for a working concentration of 5 mM. The pH was adjusted to 7.4 using 1 M NaOH. Loading the Cells with Loading Buffer • Cell plates were removed from the incubator and 25 μl of Loading Buffer containing probenecid (5 mM) added to each well. • Plates were incubated for 1 hour at 37° C. under 5% CO2 in a humidified atmosphere. […] The remaining steps of the assay were carried forward by FLIPR Tetra. A baseline reading was taken at 1-second (s) intervals for 10 s followed by the addition of 5 μl of 10× compounds. The compound-induced fluorescence signal was then measured for 3 minutes with readings taken at 1-s intervals. • The cell plate was removed from the FLIPR and set aside for an additional 17 minutes. • The cell plate was then transferred back to the FLIPR Tetra, along with the 384 well Angiotensin II agonist dilution plate. A baseline reading was taken at 1-second (s) intervals for 10 seconds, followed by the addition of 5.5 μl of 10× Angiotensin II agonist. The agonist-induced fluorescence signal was then measured for 3 minutes with readings taken at 1-s intervals. • Overall, each well in the FLIPR assay was composed of the following components in a total volume of 55.5 μl:
(§6) Time-course results from the FLIPR Calcium 5 assay were expressed as relative fluorescence light units (RFU). The maximum minus minimum values (Max−Min) were used to quantify the strength of the signal. Mean RFU were calculated from replicate values and plotted on the y-axis versus compound concentration on a logarithmic scale on the x-axis, and a single-binding site, four parameter concentration response model: (MIN+((MAX−MIN)/(1+((EC50/x)^Hill)))), was used to perform non-linear regression analysis, generating concentration response curves. Reported parameters included agonist potency EC50 (the concentration causing half-maximal agonist response), antagonist potency IC50 (the concentration causing half-maximal inhibition of the agonist response for antagonist compounds) and efficacy (% MPE: percent of the maximal possible effect).

hAT1R [2] = target: T1, hAT1R; assay: FLIPR calcium flux assay, Part II: antagonist activity against Angiotensin II; format: cell-based; settings: for Emax: read-out: hAT1R Antagonist Efficacy Antag (%) Ave; for IC50: read-out: hAT1R Antagonist IC50 Ave; as to hAT1R Antagonist Efficacy Antag (%) Ave: Angiotensin II 10 nM final concentration
Experimental: as §1, §2, §3, §4, §5, §6

Compound	Emax (hAT1R [1]) [%]	Emax (hAT1R [2]) [%]	IC50 (hAT1R [2]) [nM]
CNCC(=O)N[C@@H](CCCNC(=N)N)C(=O)N[C@H](C(=O)N[C@@H](Cc1ccc(O)cc1)C(=O)N[C@H](C(=O)N[C@@H](Cc1c[nH]cn1)C(=O)N1CCC[C@H]1C(=O)N[C@H](Cc1csc2ccccc12)C(=O)O)C1CCCCC1)C(C)C [Compound 35, Sar-Arg-Val-Tyr-Chg-His-Pro-(D-(3-benzothienyl)alanine)-OH] (HELM PEPTIDE1{[Sar].R.V.Y.[O=C([C@@H](N[*:1])C1CCCCC1)[*:2]].H.P.[O=C(O)[C@@H](Cc1csc2ccccc12)N[*:1]]}$$$$V2.0)	6	100	14.3
CNCC(=O)N[C@@H](CCCNC(=N)N)C(=O)N[C@H](C(=O)N[C@@H](Cc1ccc(O)cc1)C(=O)N[C@H](C(=O)N[C@@H](Cc1c[nH]cn1)C(=O)N1CCC[C@H]1C(=O)N[C@H](Cc1cccc2ccccc12)C(=O)O)C(C)C)C(C)C [Compound 1, Sar-Arg-Val-Tyr-Val-His-Pro-(D-1Nal)-OH] (HELM PEPTIDE1{[Sar].R.V.Y.V.H.P.[O=C(O)[C@@H](Cc1cccc2ccccc12)N[*:1]]}$$$$V2.0)	5	99	10.6
CC[C@H](C)[C@H](NC(=O)[C@@H]1CCCN1C(=O)[C@H](Cc1c[nH]cn1)NC(=O)[C@@H](NC(=O)[C@H](Cc1ccc(O)cc1)NC(=O)[C@@H](NC(=O)[C@H](CCCNC(=N)N)NC(=O)CNC)C(C)C)[C@@H](C)CC)C(=O)O [Ref. Cpd. 1, Sar-Arg-Val-Tyr-Ile-His-Pro-Ile-OH, reference compound]	42	99	–
Cc1ccccc1C[C@@H](NC(=O)[C@@H]1CCCN1C(=O)[C@H](Cc1c[nH]cn1)NC(=O)[C@@H](NC(=O)[C@H](Cc1ccc(O)cc1)NC(=O)[C@@H](NC(=O)[C@H](CCCNC(=N)N)NC(=O)CNC[C@H](O)[C@@H](O)[C@H](O)[C@H](O)CO)C(C)C)C1CCCCC1)C(=O)O [Compound 46, Glac-Arg-Val-Tyr-Chg-His-Pro-(D-Phe(2-Me))—OH] (H-[X1]RVY[Chg]HP[dPhe(2-Me)]-OH)	6	100	22.2
CNCC(=O)N[C@@H](CCCNC(=N)N)C(=O)N[C@H](C(=O)N[C@@H](Cc1ccc(N)cc1)C(=O)N[C@H](C(=O)N[C@@H](Cc1c[nH]cn1)C(=O)N1CCC[C@H]1C(=O)N[C@H](Cc1ccccc1Cl)C(=O)O)C(C)C)C(C)C [Compound 33, Sar-Arg-Val-Aph-Val-His-Pro-(D-Phe(2-Cl))—OH] (HELM PEPTIDE1{[Sar].R.V.[Nc1ccc(C[C@H](N[*:1])C(=O)[*:2])cc1].V.H.P.[O=C(O)[C@@H](Cc1ccccc1Cl)N[*:1]]}$$$$V2.0)	3	100	17.1
CNCC(=O)N[C@@H](CCCNC(=N)N)C(=O)N[C@H](C(=O)N[C@@H](Cc1ccc(O)cc1)C(=O)N[C@H](C(=O)N[C@@H](Cc1c[nH]cn1)C(=O)N1CCC[C@H]1C(=O)N[C@H](Cc1cccc2ccccc12)C(=O)O)C1CCCC1)C(C)C [Compound 15, Sar-Arg-Val-Tyr-Cpg-His-Pro-(D-1Nal)-OH] (HELM PEPTIDE1{[Sar].R.V.Y.[O=C([C@@H](N[*:1])C1CCCC1)[*:2]].H.P.[O=C(O)[C@@H](Cc1cccc2ccccc12)N[*:1]]}$$$$V2.0)	6	100	4.6
CNCC(=O)N[C@@H](CCCNC(=N)N)C(=O)N[C@H](C(=O)N[C@@H](Cc1cccc(O)c1)C(=O)N[C@H](C(=O)N[C@@H](Cc1c[nH]cn1)C(=O)N1CCC[C@H]1C(=O)N[C@H](Cc1ccccc1Cl)C(=O)O)C(C)C)C(C)C [Compound 30, Sar-Arg-Val-(m-Tyr)-Val-His-Pro-(D-Phe(2-Cl))—OH] (HELM PEPTIDE1{[Sar].R.V.[O=C([C@H](Cc1cccc(O)c1)N[*:1])[*:2]].V.H.P.[O=C(O)[C@@H](Cc1ccccc1Cl)N[*:1]]}$$$$V2.0)	12	100	20.5
CNCC(=O)N[C@@H](CCCNC(=N)N)C(=O)N[C@H](C(=O)N[C@@H](Cc1ccc(O)cc1)C(=O)N[C@H](C(=O)N[C@@H](Cc1c[nH]cn1)C(=O)N1CCC[C@H]1C(=O)N[C@H](Cc1cccc2ccccc12)C(=O)O)C1CCCCC1)C(C)C [Compound 34, Sar-Arg-Val-Tyr-Chg-His-Pro-(D-1Nal)-OH] (HELM PEPTIDE1{[Sar].R.V.Y.[O=C([C@@H](N[*:1])C1CCCCC1)[*:2]].H.P.[O=C(O)[C@@H](Cc1cccc2ccccc12)N[*:1]]}$$$$V2.0)	5	100	15.5
CNCC(=O)N[C@@H](CCCNC(=N)N)C(=O)N[C@H](C(=O)N[C@@H](Cc1ccc(O)cc1)C(=O)N[C@H](C(=O)N[C@@H](Cc1c[nH]cn1)C(=O)N1CCC[C@H]1C(=O)N[C@H](Cc1ccccc1Cl)C(=O)O)C(C)C)C(C)C [Compound 4, Sar-Arg-Val-Tyr-Val-His-Pro-(D-Phe(2-Cl))—OH] (HELM PEPTIDE1{[Sar].R.V.Y.V.H.P.[O=C(O)[C@@H](Cc1ccccc1Cl)N[*:1]]}$$$$V2.0)	6	99	10.7
CC(C)[C@H](NC(=O)[C@H](CCCNC(=N)N)NC(=O)CNC[C@H](O)[C@@H](O)[C@H](O)[C@H](O)CO)C(=O)N[C@@H](Cc1ccc(O)cc1)C(=O)N[C@H](C(=O)N[C@@H](Cc1c[nH]cn1)C(=O)N1CCC[C@H]1C(=O)N[C@H](Cc1csc2ccccc12)C(=O)O)C(C)C [Compound 38, Glac-Arg-Val-Tyr-Val-His-Pro-(D-(3-benzothienyl)alanine)-OH] (HELM PEPTIDE1{[O=C(CNC[C@H](O)[C@@H](O)[C@H](O)[C@H](O)CO)[*:2]].R.V.Y.V.H.P.[O=C(O)[C@@H](Cc1csc2ccccc12)N[*:1]]}$$$$V2.0)	5	101	18.8
CC(C)[C@H](NC(=O)[C@H](CCCNC(=N)N)NC(=O)CNC[C@H](O)[C@@H](O)[C@H](O)[C@H](O)CO)C(=O)N[C@@H](Cc1ccc(O)cc1)C(=O)N[C@H](C(=O)N[C@@H](Cc1c[nH]cn1)C(=O)N1CCC[C@H]1C(=O)N[C@H](Cc1cccc2ccccc12)C(=O)O)C1CCCCC1 [Compound 40, Glac-Arg-Val-Tyr-Chg-His-Pro-(D-1Nal)-OH] (H-[X1]RVY[Chg]HP[d1Nal]-OH)	5	101	21.9
CNCC(=O)N[C@@H](CCCNC(=N)N)C(=O)N[C@H](C(=O)N[C@@H](Cc1ccc(O)cc1)C(=O)N[C@@H](CC1CCCCC1)C(=O)N[C@@H](Cc1c[nH]cn1)C(=O)N1CCC[C@H]1C(=O)N[C@H](Cc1cccc2ccccc12)C(=O)O)C(C)C [Compound 14, Sar-Arg-Val-Tyr-Cha-His-Pro-(D-1Nal)-OH] (HELM PEPTIDE1{[Sar].R.V.Y.[Cha].H.P.[O=C(O)[C@@H](Cc1cccc2ccccc12)N[*:1]]}$$$$V2.0)	5	100	8
